These results are taken from PMC8220418, “A fragment-based approach to assess the ligandability of ArgB, ArgC, ArgD and ArgF in the L-arginine biosynthetic pathway of Mycobacterium tuberculosis” (Computational and Structural Biotechnology Journal, 2021).

Broadly, the IC50 is the concentration that inhibits the measured activity by half. One may read the Kd as the concentration at which binding is half-saturated. As usually defined, the ΔTm is the shift of the melting midpoint relative to a reference. As usually defined, the inhibition is the share of the control response that was lost under treatment.

The structures appear in SMILES notation. ≈ marks a conversion by molar mass, not a printed value. Where two headings read alike, the source gives them in different places. Some results are limits rather than exact numbers.

Assay [1] concerns the target T1, ArgB (Mycobacterium tuberculosis, UniProt P9WQ01). As to the kind of experiment: Differential scanning fluorimetry (DSF) fragment screening against ArgB. The note with it: known ligands (positive controls); 1 mM for ATP, N-acetyl-glutamate, L-arginine. The class given is binding. How it is done: (§1) Fragment screening was carried out in a 96-well PCR plate using a CFX Connect Real-time PCR Detection System (Bio-Rad) for DSF. For ArgB, each 25 μL reaction mixture contained 10 µM ArgB, 100 mM HEPES (pH 7.5), 200 mM NaCl, 5x SYPRO Orange, 5% DMSO (v/v), and fragments at 5 mM. For ArgF each 25 μL reaction mixture contained 5 µM ArgF, 25 mM Tris-HCl (pH 8.0), 150 mM NaCl, 5x SYPRO Orange dye, 5 mM fragments and 5% DMSO (v/v). For ArgC and ArgD, the 25 μL reaction volume consisted of the following: 2.5 μM ArgC/5 μM ArgD, 100 mM sodium phosphate pH 7, 200 mM NaCl, 5x SYPRO Orange, and 5 mM fragments (960 fragment library). The protocol implemented increased temperature by 0.5 °C after every 30 s, going from 25 °C to 95 °C and measuring SYPRO Orange fluorescence for each temperature cycle. The melt curve RFU (relative fluorescence units) and derivative -d(RFU)/dT values were analysed and plotted using a macros-enabled Excel Workbook: the minima of the melt curves were recorded as the melting temperature (Tm) of the enzymes in the presence of each fragment. The Tm of the reference control (protein in the presence of DMSO) was subtracted from all the readings to calculate ΔTm.
On the technique in general: DSF heats the sample and reads unfolding from a dye or from intrinsic fluorescence.

Assay [2] concerns the target T1, ArgB. As to the kind of experiment: ArgB enzymatic assay (ADP release coupled to NADH oxidation, pyruvate kinase/lactate dehydrogenase). The class given is biochemical. The note with it: IC50, 0.5 µM ArgB, 0.3 mM ATP, 1.25 mM NAG, 10% DMSO. How it is done: ArgB activity was assessed by a colorimetric assay that followed the release of ADP by measuring the oxidation of NADH at 340 nm, for 30 min, in the presence of pyruvate kinase and lactate dehydrogenase in a PHERAstar plate-reader (BMG-Labtech). […]. Inhibitors were also individually screened against the coupled enzymes to eliminate any compounds interfering with the other assay components. Competition assays were performed in the same conditions using 0.3 mM of ATP or NAG and varying the other substrate concentration.

Assay [3] deals with T1, ArgB. As to the kind of experiment: biochemical. The class given is binding. The note with it: ITC Kd, six-site sequential binding model, 25 °C, sequential binding, six-site model.
For assay [4], the system named is M. tuberculosis MDR strain V2475. The assay is described as follows: microbe, parasite or virus in culture. The class given is cell-based, Mycobacterium tuberculosis. The note with it: Mycobacterium tuberculosis.
The next assay relates to M. tuberculosis H37Rv. The assay is described as follows: microbe, parasite or virus in culture. The class given is cell-based, Mycobacterium tuberculosis.
A further assay deals with M. tuberculosis ΔargB-c. The assay is described as follows: microbe, parasite or virus in culture. The class given is cell-based, Mycobacterium tuberculosis.
In assay [5] the target is T2, ArgC (Mycobacterium tuberculosis, UniProt P9WPZ9). The assay is described as follows: Differential scanning fluorimetry (DSF) fragment screening against ArgC. The class given is binding. The note with it: for DSF ΔTm: 1 mM co-factor, average across all DSF runs; for ΔTm at 5000 µM: fragments at 5 mM, 2.5 μM ArgC. How it is done: as §1
Assay [6] concerns the target T2, ArgC. As to the kind of experiment: X-ray crystallography of ArgC soaked with fragments (binding site). The note with it: crystal soaking. On the procedure: ArgC crystals grown in pH 5.5 were first soaked in 1.5 µL drops containing the mother liquor and 5 mM NADP^+ for 2 h in hanging drops that were equilibrated against a reservoir of 500 µL. Thereafter, the crystals were transferred to drops containing the crystallisation condition and an SPR-validated fragments (20 mM, 10% DMSO), which were equilibrated against 500 µL of mother liquor also containing a corresponding percentage of DMSO overnight at 19 °C. ArgC crystals grown in pH 7 were soaked with 5 mM NADP^+ only for 5–10 min due to the rapid development of cracks, and transferred to the fragment soaking drops for 5–10 min from where they were fished and frozen.
X-ray diffraction data (single-wavelength anomalous diffraction) were collected on beamlines i02, i03, i04, i04-1 and i24 at the Diamond Light Source (DLS), UK and on id30B at The European Synchrotron Radiation Facility (ESRF). Diffraction data were processed and reduced with autoPROC from Global Phasing Limited or Xia2 [31]. The apo-form of ArgB was crystallised in the R3_2 space group with one protomer per asymmetric unit (ASU) and the ArgB:NAG complex in the P6_3 space group with two protomers per ASU. ArgF was crystallized in the P2_1 space group with 6 protomers in the ASU. ArgC was crystallised in C2 and P2_1 space groups, with 2 and 4/8 protomers per ASU respectively. ArgD was crystallised in the P2_1 space group as well but with 4 protomers in the ASU.
Initial phases were determined with PHASER [32] from PHENIX software package using the M. tuberculosis ArgB structure (PDB: 2AP9), M. tuberculosis ArgF structure (PDB: 2P2G), M. tuberculosis ArgC structure (PDB: 2I3G) and E. coli Succinyl-ornithine transaminase (AstC, 42% sequence identity, PDB: 4ADB) as a search models, respectively for ArgB, ArgF, ArgC and ArgD. Model building was done with Coot, and refinement was performed in PHENIX [33], [35] for ArgB, ArgF, and ArgC. For ArgD, after the initial molecular replacement solution and a single cycle of refinement, PHENIX AutoBuild was used to generate a model for M. tuberculosis ArgD that was then refined with Coot and PHENIX. Structure validation was performed using Coot and PHENIX tools, [34]. All figures were prepared with PyMOL (The PyMOL Molecular Graphics System, Version 2.0 Schrodinger, LLC).

Assay [7] deals with T2, ArgC. The assay is described as follows: Surface plasmon resonance with immobilised ArgC. The class given is binding. How it is done: Low molecular weight (LMW) screening with the DSF fragment hits was carried out using the T200 Biacore instrument (GE Healthcare Life Sciences). A series S CM5 sensor chip (GE Healthcare Life Sciences) was used for the immobilisation of ArgC on the carboxymethylated dextran matrix through amine coupling. A 25 μg/mL ArgC dilution was prepared in the optimal coupling buffer (sodium acetate pH 5), and immobilisation was performed by manual instructions. The immobilised ArgC was tested using dilution series (19 μM to 2.5 mM) of NADP^+ and NADPH. 50 mM fragment DMSO stocks were used to prepare 1 mM dilutions in the SPR buffer consisting of 10 mM sodium phosphate pH 7.0, 150 mM NaCl and 2% DMSO (v/v). Each NADP^+/NADPH and fragment dilution was injected once at a flow rate of 30 μL/min for a contact time of 30 s, SPR Running buffer (10 mM sodium phosphate pH 7.0 and 150 mM NaCl) was passed for 320 s at the same flow rate, and 50% DMSO v/v (diluted in SPR running buffer) was injected at the end of the cycle to remove undissociated analyte. Solvent correction was carried out to account for DMSO mismatch between the analyte dilutions and the SPR running buffer.
The fragment hits obtained previously were injected at a concentration of 1 mM. The sensorgrams for all the analytes were inspected visually to exclude fragments with either no discernible response or a “sticky” profile from further analysis (representative sensorgrams for fragment binders are shown in Fig. S2a and b). The binding level was calculated using the T200 software and adjusted for molecular weights of the analytes (Fig. S2c and d). For ArgC, 22 fragments with a binding level response ≥20 RU were shortlisted, whereas in the case of ArgD, 20 fragments with a response ≥10 RU were shortlisted for crystallographic validation. Fragments were thereafter described either as SPR ‘positive’ or ‘negative’.

For assay [8], the target named is T2, ArgC. As to the kind of experiment: ArgC enzymatic assay (NADPH oxidation at 340 nm). The note with it: 2 mM fragment, 3.5 μM ArgC, 2.5% DMSO. The class given is biochemical. On the procedure:
To synthesise the ArgC substrate, a reaction mixture containing 3 μM ArgB, 1 mM NAG and 1 mM ATP in 50 mM Tris-HCl pH 7.5, 100 mM NaCl and 40 mM MgCl2 was made and the reaction was allowed to proceed for 1–1.5 h at room temperature. Thereafter, 100 μL of the ArgC reaction mixture consisting of 50 mM Tris-HCl pH 7.5, 100 mM NaCl and 0.6 mM NADPH (concentration in 200 μL), was added to each well together with 100 μL of the ArgB reaction mixture and followed for 30 min at 35 °C by measuring the oxidation of NADPH at 340 nm. Controls with only NADPH, 2.5% DMSO (v/v) and no ArgC, as well as only NADPH, 4 mM fragment and no ArgC were prepared. Baseline ArgC activity was assayed with and without DMSO, the effect of 2.5% and 5% DMSO on enzymatic activity was also tested. […] All conditions were prepared in triplicates. 3.5 μM ArgC was added just before measurements were started.

For another assay, the target named is ArgD (Mycobacterium tuberculosis, UniProt P9WPZ7). As to the kind of experiment: Differential scanning fluorimetry (DSF) against ArgD. The class given is binding.
Setting [9] is: fragments at 1 mM, adjusted for molecular weight.

ArgD, sequence (P9WPZ7 whole entry, the tested form may be a part): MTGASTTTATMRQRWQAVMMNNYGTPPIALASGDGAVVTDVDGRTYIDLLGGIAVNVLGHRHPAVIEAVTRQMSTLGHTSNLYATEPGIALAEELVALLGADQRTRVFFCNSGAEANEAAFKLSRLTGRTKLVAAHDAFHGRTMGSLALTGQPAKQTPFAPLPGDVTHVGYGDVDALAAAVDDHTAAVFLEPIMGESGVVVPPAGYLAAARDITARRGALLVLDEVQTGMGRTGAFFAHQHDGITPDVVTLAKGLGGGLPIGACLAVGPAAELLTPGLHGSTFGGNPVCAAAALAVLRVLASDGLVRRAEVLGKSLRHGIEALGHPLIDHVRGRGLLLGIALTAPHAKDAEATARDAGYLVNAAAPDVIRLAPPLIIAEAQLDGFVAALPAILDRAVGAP
T2 sequence (P9WPZ9 whole entry, the tested form may be a part): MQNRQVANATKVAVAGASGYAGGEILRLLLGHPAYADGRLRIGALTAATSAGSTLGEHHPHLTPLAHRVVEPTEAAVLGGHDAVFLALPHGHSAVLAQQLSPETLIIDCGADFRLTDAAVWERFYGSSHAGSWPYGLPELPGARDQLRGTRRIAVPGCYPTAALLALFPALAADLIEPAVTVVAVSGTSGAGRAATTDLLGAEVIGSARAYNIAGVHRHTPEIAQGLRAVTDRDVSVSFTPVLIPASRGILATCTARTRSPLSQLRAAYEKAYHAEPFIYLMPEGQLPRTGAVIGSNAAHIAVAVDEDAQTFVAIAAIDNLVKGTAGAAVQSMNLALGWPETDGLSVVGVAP

For the molecule `Nc1ncnc2c1ncn2[C@@H]1O[C@H](COP(=O)(O)OP(=O)(O)OP(=O)(O)O)[C@@H](O)[C@H]1O` [ATP], the “DSF ΔTm” value on ArgB [1] is “+2.0 °C”.
At ArgB [2], `N=C(N)NCCC[C@H](N)C(=O)O` [L-arginine] had an IC50 of 146 ± 1 µM. Also, the dissociation constant (Kd) at ArgB [3] (1st value) came out at 4.5 µM; at ArgB [3] (2nd value) it was 4.8 µM; on ArgB [3] (3rd value) it was 6.1 µM; at ArgB [3] (4th value) it was 9.4 µM; at ArgB [3] (5th value), 12.9 µM; on ArgB [3] (6th value) it was 42 µM. Besides, on ArgB [1], the ΔTm at 1000 µM turned out to be 11.8 °C.
Turning to `NC(N)=NOCC[C@H](N)C(=O)O` [L-canavanine, reference compound], the MIC in [4] was > 200 µg/mL; in the assay with M. tuberculosis H37Rv (Mycobacterium tuberculosis, media without arginine), 50 µg/mL (≈ 284 µM); against M. tuberculosis ΔargB-c (Mycobacterium tuberculosis), 50 µg/mL (≈ 284 µM). This molecule had an IC50 on ArgB [2] of 1460 ± 2 µM. In addition, the “Inhibitory activity on growth with arginine present” value in the assay on M. tuberculosis H37Rv (arginine (1 mM) in the media) and in the assay with M. tuberculosis ΔargB-c was “no inhibitory activity” throughout. The Kd worked out at 4.5 µM at ArgB [3] (1st value); 4.8 µM on ArgB [3] (2nd value); 6.4 µM at ArgB [3] (3rd value); 34 µM on ArgB [3] (4th value); 35 µM at ArgB [3] (5th value); 137 µM at ArgB [3] (6th value). For the same molecule, at ArgB [1], the thermal shift (ΔTm) at 1000 µM was 7.2 °C.
As for `NC(=O)c1ccc[n+]([C@@H]2O[C@H](COP(=O)([O-])OP(=O)(O)OC[C@H]3O[C@@H](n4cnc5c(N)ncnc54)[C@H](OP(=O)(O)O)[C@@H]3O)[C@@H](O)[C@H]2O)c1` [NADP, reference compound], the “DSF ΔTm” value at ArgC [5] is “+0.6 °C”; at ArgC [5] (listed as NADP^+), ~ 0.6 °C. The “Binding site (X-ray)” value on ArgC [6] was “Co-factor”. For the same molecule, the “SPR Binding Response” value at ArgC [7] (1.25 mM) is 19.5 (1.25 mM) RU.
As for `NC(=O)C1=CN([C@@H]2O[C@H](COP(=O)(O)OP(=O)(O)OC[C@H]3O[C@@H](n4cnc5c(N)ncnc54)[C@H](OP(=O)(O)O)[C@@H]3O)[C@@H](O)[C@H]2O)C=CC1` [NADPH, reference compound], the “DSF ΔTm” value at ArgC [5] was −0.9 °C. The “Binding site (X-ray)” value at ArgC [6] is reported as “Co-factor”. Also, on ArgC [7] (1.25 mM), the “SPR Binding Response” value is 16.3 (1.25 mM) RU.
As for `CC(=O)N[C@@H](CCC(=O)O)C(=O)O` [NAG, N-acetyl-L-glutamic acid], the ΔTm at 1000 µM at ArgB [1] came out at 8.6 °C.
`COc1ccc2[nH]cc(CC(=O)O)c2c1` [NMR322, 5-Methoxy-3-indoleacetic acid] gave an inhibition at 2000 µM on ArgC [8] of 45%. In addition, the ΔTm at 5000 µM at ArgC [5] amounted to 3.1 °C. The “Binding site (X-ray)” value at ArgC [6] is on record as “Substrate”. The “SPR Binding Response” value on ArgC [7] (setting [9]) is recorded as 80.5 RU.
`Nc1ccc(Oc2ccccc2)nc1` [NMR401, 6-phenoxy-3-pyridinamine]: 2000 µM produced 10% inhibition against ArgC [8]. In addition, on ArgC [5], the thermal shift (ΔTm) at 5000 µM came out at 4.8 °C. In addition, the “Binding site (X-ray)” value at ArgC [6] is listed as “Co-factor”. The “SPR Binding Response” value at ArgC [7] (setting [9]) came to 36.7 RU.
Taken in the same sequence, the figures for `O=C(O)C1c2ccccc2Oc2ccccc21` [NMR571, Xanthene-9-carboxylic acid] were 37%, 3.1 °C, “Substrate” and 78.0 RU.
For `COc1ccc2oc(C(=O)O)nc2c1` [NMR863, 5-methoxy-1,3-benzoxazole-2-carboxylic acid], in that order: 12%, 5 °C, “Co-factor” and 41.6 RU.
Turning to `Cc1ncc(COP(=O)(O)O)c(C=O)c1O` [PLP, pyridoxal-5′-phosphate], the entries for the “Melting temperature of ArgD after addition of PLP” value on ArgD and at ArgD (PLP-unsaturated ArgD + 1 mM PLP) were 79 °C and 77.5 °C, respectively. Moreover, the ΔTm at 1000 µM on ArgD (PLP (1 mM), PLP-unsaturated ArgD) amounted to 13 °C.
